Like-named read-outs stand apart in the source and are kept apart here.
Columns and labels:
[1] = test system: 60 different human tumor cell lines (the NCI 60); details: CCRF-CEM, HL-60(TB), K-562, MOLT-4, RPMI-8226, SR, A549/ATCC, NCI-H460, HCT-116, HCT-15, HT29, SF-268, SF-295, U251, LOX IMVI, SK-MEL-28, SK-MEL-5, IGROV1, OVCAR-3, OVCAR-8, A498, RXF393, MCF7, HS578T
[2] = target: BTK (Homo sapiens, UniProt Q06187); assay: Ambit kinase phage display ATP-binding-site ligand binding assay; details: read-out: % Inhibition of binding to ATP-binding-site ligand
Source text: (§1) In this assay, protein kinases are cloned into T7 bacteriophage which express the kinase fusion proteins on the phage capsid. T7 kinase-tagged phage are then screened for binding to ATP-binding-site ligands that have been immobilized on a solid support. Phage are screened for binding to the anchored ligands both in the presence of test compound and in its absence (control). Elution of the bound phage by free ligand (ATP-binding site ligand that is not immobilized on a solid support) followed by determination of the phage titre provides a reliable measure of the ability of test compounds to block binding of target kinases to resin-bound ATP-binding-site ligands.
(§2) T7 kinase-tagged phage strains were grown in parallel in microtiter plates in a proprietary bacterial host derived from E. Coli strain BL21. E. Coli were grown to a log phase, infected with T7 kinase-tagged phage, and incubated while shaking at 32° C. until bacterial lysis (approx. 90 min). Lysates were centrifuged (6,000 g) and filtered (0.2 μm). Small molecule ATP-binding-site-specific ligands were anchored to solid supports via a two step process beginning with biotin conjugation followed by treatment of the biotin/small molecule conjugate with streptavidin-coated magnetic beads. […] The phage titre of the eluates was measured by quantitative PCR or by plaque assays. […]

[3] = cells; details: Homo sapiens
[4] = target: MINK (Homo sapiens, UniProt Q8N4C8); assay: Ambit kinase phage display ATP-binding-site ligand binding assay; details: read-out: percent inhibition of binding
Source text: (§3) This assay is based on ligand-affinity/protein kinase phage display and was employed essentially as described by Fabian et. al [Nature Biotech. […] In this assay, protein kinases are cloned into T7 bacteriophage which express the kinase fusion proteins on the phage capsid. T7 kinase-tagged phage are then screened for binding to ATP-binding-site ligands that have been immobilized on a solid support. Phage are screened for binding to the anchored ligands both in the presence of test compound and in its absence (control). Elution of the bound phage by free ligand (ATP-binding site ligand that is not immobilized on a solid support) followed by determination of the phage titre provides a reliable measure of the ability of test compounds to block binding of target kinases to resin-bound ATP-binding-site ligands.
(§4) T7 kinase-tagged phage strains were grown in parallel in microtiter plates in a proprietary bacterial host derived from E. Coli strain BL21. E. Coli were grown to a log phase, infected with T7 kinase-tagged phage, and incubated while shaking at 32° C. until bacterial lysis (approx. 90 min). Lysates were centrifuged (6,000 g) and filtered (0.2 μm). […] The phage titre of the eluates was measured by quantitative PCR or by plaque assays. […]

[5] = test system: HS 578T
[6] = target: CSNK2A2 (Homo sapiens, UniProt P19784); assay: Ambit kinase phage display ATP-binding-site ligand binding assay; details: read-out: % Inhibition of binding to ATP-binding-site ligand
Source text: as §3, §4

[7] = target: MET (Homo sapiens, UniProt P08581); assay: as above; details: read-out: percent inhibition of binding
Source text: as §3, §4

[8] = test system: SR; assay: cells; details: Homo sapiens; for CC50: read-out: LC50
[9] = target: AURKB (Homo sapiens, UniProt Q96GD4); assay: Ambit kinase phage display ATP-binding-site ligand binding assay; details: read-out: percent inhibition of binding
Source text: as §1, §2

[10] = test system: K-562
[11] = target: RPSGKA1 (Homo sapiens, UniProt Q15418); assay: Ambit kinase phage display ATP-binding-site ligand binding assay; details: read-out: % Inhibition of binding to ATP-binding-site ligand
Source text: as §1, §2

[12] = test system: SW-620
[13] = test system: MOLT-4; assay: cells; details: Homo sapiens
[14] = test system: HL-60(TB)
[15] = target: CLK4 (Homo sapiens, UniProt Q9HAZ1); assay: Ambit kinase phage display ATP-binding-site ligand binding assay; details: read-out: percent inhibition of binding
Source text: as §1, §2

[16] = test system: MOLT-4
[17] = test system: SK-MEL-28
[18] = target: EGFR (Homo sapiens, UniProt P00533); assay: Ambit kinase phage display ATP-binding-site ligand binding assay; details: read-out: % Inhibition of binding to ATP-binding-site ligand
Source text: as §3, §4

[19] = test system: 60 different human tumor cell lines (the NCI 60); assay: cells; details: read-out: LC50 value for each cell line
[20] = target: EPHA5 (Homo sapiens, UniProt P54756); assay: Ambit kinase phage display ATP-binding-site ligand binding assay; details: read-out: percent inhibition of binding
Source text: as §1, §2

[21] = test system: SW-620; assay: cells; details: Homo sapiens
[22] = test system: K-562; assay: cells; details: Homo sapiens
[23] = target: p38-beta (Homo sapiens, UniProt Q15759); assay: Ambit kinase phage display ATP-binding-site ligand binding assay; details: read-out: percent inhibition of binding
Source text: as §1, §2

[24] = test system: PC-3; assay: cells; details: Homo sapiens
[25] = Log10 Concentration −4.0, Molar
[26] = Log10 Concentration −5.0, Molar
[27] = Log10 Concentration −6.0, Molar
[28] = Log10 Concentration −7.0, Molar
[29] = Log10 Concentration −8.0, Molar

Chain of EPHA5 (P54756 25-1037): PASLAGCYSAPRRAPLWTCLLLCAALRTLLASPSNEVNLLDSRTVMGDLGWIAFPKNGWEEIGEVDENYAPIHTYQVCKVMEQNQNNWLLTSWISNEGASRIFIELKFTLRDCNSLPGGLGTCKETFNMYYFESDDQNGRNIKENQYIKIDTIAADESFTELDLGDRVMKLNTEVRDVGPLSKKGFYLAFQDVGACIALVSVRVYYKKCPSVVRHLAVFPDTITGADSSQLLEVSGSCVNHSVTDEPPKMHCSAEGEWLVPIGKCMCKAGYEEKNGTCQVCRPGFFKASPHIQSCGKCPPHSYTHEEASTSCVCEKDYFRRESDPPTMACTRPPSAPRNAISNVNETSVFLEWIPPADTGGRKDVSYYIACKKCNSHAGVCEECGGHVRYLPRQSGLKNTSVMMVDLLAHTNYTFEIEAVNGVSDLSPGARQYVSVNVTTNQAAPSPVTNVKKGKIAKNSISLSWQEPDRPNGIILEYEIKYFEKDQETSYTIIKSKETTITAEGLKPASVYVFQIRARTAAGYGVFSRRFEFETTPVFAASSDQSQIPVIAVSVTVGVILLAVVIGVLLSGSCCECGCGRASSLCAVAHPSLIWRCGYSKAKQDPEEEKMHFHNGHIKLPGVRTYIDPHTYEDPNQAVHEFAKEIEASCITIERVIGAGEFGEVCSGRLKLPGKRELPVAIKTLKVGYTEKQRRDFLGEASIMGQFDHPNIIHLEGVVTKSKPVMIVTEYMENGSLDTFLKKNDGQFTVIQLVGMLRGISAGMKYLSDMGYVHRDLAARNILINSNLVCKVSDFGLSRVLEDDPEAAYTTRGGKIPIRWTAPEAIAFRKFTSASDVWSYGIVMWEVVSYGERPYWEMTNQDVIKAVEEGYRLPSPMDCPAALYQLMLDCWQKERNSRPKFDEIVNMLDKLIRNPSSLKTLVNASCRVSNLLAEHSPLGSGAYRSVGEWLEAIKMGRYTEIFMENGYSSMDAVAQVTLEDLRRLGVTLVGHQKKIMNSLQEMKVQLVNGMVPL
Chain of MET (P08581 25-1390): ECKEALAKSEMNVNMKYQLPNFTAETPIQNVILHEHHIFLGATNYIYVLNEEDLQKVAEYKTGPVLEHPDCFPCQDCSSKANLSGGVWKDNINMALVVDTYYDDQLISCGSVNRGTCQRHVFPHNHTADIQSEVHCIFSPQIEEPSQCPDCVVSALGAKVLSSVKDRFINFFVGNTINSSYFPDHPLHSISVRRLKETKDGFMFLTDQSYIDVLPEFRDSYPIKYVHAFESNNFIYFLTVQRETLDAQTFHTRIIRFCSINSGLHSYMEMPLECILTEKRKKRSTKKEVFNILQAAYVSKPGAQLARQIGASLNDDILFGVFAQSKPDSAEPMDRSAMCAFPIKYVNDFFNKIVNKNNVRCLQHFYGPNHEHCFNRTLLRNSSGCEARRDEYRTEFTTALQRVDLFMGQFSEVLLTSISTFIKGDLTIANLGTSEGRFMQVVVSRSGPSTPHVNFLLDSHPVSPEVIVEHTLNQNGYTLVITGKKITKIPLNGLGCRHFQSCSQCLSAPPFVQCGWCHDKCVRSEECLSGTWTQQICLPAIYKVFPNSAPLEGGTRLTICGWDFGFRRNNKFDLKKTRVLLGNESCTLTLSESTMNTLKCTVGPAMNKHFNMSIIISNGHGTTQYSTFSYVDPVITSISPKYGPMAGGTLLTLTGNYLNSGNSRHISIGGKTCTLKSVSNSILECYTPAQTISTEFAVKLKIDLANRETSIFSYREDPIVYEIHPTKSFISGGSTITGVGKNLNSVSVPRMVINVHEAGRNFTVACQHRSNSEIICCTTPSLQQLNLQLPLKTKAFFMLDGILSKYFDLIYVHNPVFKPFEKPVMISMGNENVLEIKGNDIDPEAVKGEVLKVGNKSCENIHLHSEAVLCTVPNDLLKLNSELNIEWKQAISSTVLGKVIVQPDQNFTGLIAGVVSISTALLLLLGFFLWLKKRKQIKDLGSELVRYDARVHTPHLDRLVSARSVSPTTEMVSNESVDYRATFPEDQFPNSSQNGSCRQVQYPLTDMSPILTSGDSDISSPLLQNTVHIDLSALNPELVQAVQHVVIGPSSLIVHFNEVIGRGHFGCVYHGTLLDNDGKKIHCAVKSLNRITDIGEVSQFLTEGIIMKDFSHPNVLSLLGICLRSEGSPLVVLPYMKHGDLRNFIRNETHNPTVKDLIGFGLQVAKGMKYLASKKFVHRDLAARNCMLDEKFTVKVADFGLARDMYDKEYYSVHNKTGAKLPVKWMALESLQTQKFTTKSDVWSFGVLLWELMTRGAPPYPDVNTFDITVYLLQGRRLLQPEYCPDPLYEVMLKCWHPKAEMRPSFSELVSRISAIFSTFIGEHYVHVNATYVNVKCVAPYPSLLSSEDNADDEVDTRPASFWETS
Chain of p38-beta (Q15759 whole entry): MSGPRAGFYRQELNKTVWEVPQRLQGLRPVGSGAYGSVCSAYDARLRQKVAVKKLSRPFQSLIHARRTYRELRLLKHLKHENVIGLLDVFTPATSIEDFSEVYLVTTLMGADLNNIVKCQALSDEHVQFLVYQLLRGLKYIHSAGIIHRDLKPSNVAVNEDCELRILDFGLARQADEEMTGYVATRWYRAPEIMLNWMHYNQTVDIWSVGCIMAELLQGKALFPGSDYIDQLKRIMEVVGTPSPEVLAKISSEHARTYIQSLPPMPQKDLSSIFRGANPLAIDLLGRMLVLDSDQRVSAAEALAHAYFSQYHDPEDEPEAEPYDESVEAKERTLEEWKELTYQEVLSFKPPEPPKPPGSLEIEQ
Chain of CSNK2A2 (P19784 whole entry): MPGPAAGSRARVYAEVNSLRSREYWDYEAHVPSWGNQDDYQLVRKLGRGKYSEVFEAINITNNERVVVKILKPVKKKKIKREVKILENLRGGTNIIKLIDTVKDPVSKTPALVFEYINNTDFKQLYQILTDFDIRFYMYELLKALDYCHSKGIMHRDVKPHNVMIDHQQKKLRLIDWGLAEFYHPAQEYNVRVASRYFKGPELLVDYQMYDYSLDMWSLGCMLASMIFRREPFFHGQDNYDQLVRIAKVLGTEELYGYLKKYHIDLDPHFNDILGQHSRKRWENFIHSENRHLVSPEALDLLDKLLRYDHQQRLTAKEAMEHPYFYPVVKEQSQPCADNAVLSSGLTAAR
Chain of CLK4 (Q9HAZ1 whole entry): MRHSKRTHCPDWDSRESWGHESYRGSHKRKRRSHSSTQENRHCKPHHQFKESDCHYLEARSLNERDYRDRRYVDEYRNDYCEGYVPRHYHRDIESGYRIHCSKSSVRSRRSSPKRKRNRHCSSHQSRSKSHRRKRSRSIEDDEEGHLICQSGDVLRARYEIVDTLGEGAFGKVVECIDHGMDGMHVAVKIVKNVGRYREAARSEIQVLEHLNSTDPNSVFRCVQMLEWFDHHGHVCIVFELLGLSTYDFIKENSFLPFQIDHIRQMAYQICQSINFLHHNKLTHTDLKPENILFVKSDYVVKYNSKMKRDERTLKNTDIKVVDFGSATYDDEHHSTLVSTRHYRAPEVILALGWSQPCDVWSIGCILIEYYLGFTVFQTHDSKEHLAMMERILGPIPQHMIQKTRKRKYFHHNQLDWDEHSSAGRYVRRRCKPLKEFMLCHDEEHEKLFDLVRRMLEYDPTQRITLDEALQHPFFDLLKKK
Chain of AURKB (Q96GD4 whole entry): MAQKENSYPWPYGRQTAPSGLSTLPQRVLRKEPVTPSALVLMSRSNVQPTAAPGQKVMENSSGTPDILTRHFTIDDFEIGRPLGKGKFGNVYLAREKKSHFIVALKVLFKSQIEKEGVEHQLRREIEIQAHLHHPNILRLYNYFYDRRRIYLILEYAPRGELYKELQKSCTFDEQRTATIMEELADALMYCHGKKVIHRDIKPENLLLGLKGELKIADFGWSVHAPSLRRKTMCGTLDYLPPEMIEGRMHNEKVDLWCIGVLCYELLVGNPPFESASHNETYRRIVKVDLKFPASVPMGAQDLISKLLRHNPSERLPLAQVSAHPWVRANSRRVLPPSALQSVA
Chain of RPSGKA1 (Q15418 whole entry): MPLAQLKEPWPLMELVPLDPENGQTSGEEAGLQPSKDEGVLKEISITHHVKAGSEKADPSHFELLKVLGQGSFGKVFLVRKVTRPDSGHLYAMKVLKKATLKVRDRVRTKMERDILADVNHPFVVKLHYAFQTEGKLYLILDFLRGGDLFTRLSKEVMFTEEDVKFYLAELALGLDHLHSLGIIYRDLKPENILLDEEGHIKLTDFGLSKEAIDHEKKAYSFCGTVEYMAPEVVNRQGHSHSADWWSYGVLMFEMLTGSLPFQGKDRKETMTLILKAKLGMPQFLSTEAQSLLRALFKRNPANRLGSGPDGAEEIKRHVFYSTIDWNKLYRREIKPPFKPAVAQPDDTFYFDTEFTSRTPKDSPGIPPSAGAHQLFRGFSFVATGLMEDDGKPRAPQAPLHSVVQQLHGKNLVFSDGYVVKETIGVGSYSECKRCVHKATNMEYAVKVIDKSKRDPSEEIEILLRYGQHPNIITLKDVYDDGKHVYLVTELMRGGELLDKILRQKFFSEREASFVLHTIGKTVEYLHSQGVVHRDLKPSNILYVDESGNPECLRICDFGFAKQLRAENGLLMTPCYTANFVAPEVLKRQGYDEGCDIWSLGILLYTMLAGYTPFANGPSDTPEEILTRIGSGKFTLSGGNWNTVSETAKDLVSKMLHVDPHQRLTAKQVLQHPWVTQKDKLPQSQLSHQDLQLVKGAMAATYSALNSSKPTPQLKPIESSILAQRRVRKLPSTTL

CCOC(=O)C[C@@H]1C(O[Si](C)(C)C(C)(C)C)[C@H](n2cnc3c(NC(=O)Nc4ccccc4)ncnc32)O[C@@H]1CNC(=O)NC (some centres unmarked) [Compound 10]
GI50 values (potent anticancer activities) ([1]; HOP-62, NCI-H522, COLO 205, KM12, SW-620, SF-539, SNB-75, M14, SK-MEL-2, UACC-257, 786-0, ACHN, SN12C, PC-3, DU-145, MDA-MB-231/ATCC, MDA-MB-435, T-47D): low micromolar | inhibition at 10 µM [2]: 35% | CC50 ([3]; 48 h, read-out: LC50): 17.9 µM | inhibition at 10 µM [4]: 20 to 29% | TGI ([5]; 48 h): 5.36E−5 Molar | Percent Growth [5, 25]: −7% | Percent Growth [5, 26]: 18% | Percent Growth [5, 27]: 90% | Percent Growth [5, 28]: 95% | Percent Growth [5, 29]: 94% | inhibition at 10 µM [6]: 31% | inhibition at 10 µM [7]: 20 to 29% | GI50 ([8]; 48 h): 2.23 µM | CC50 ([8]; 48 h): > 100 µM | inhibition at 10 µM [9]: 20 to 29% | TGI ([10]; 48 h): 3.29E−5 Molar | Percent Growth [10, 25]: −17% | Percent Growth [10, 26]: 19% | Percent Growth [10, 27]: 89% | Percent Growth [10, 28]: 93% | Percent Growth [10, 29]: 96% | inhibition at 10 µM [11]: 40% | TGI ([12]; 48 h): 2.84E−5 Molar | Percent Growth [12, 25]: −33% | Percent Growth [12, 26]: 28% | Percent Growth [12, 27]: 97% | Percent Growth [12, 28]: 94% | Percent Growth [12, 29]: 97% | GI50 ([13]; MOLT-4, 48 h): 2.39 µM | CC50 ([13]; MOLT-4, 48 h, read-out: LC50): > 100 µM | Percent Growth [14, 25]: 22% | Percent Growth [14, 26]: −5% | Percent Growth [14, 27]: 101% | Percent Growth [14, 28]: 110% | Percent Growth [14, 29]: 85% | inhibition at 10 µM [15]: 20 to 29% | TGI ([16]; 48 h): 2.33E−5 Molar | Percent Growth [16, 25]: −14% | Percent Growth [16, 26]: 8% | Percent Growth [16, 27]: 76% | Percent Growth [16, 28]: 84% | Percent Growth [16, 29]: 93% | TGI ([17]; 48 h): 2.02E−5 Molar | Percent Growth [17, 25]: −91% | Percent Growth [17, 26]: 40% | Percent Growth [17, 27]: 100% | Percent Growth [17, 28]: 106% | Percent Growth [17, 29]: 104% | inhibition at 10 µM [18]: 30% | CC50 [19]: > 100 µM | inhibition at 10 µM [20]: 20 to 29% | GI50 ([21]; SW-620, 48 h): 4.8 µM | CC50 ([21]; SW-620, 48 h, read-out: LC50): > 100 µM | GI50 ([22]; K562, 48 h): 3.59 µM | CC50 ([22]; K562, 48 h, read-out: LC50): > 100 µM | inhibition at 10 µM [23]: 20 to 29% | GI50 ([24]; PC-3, 48 h): 2.25 µM | CC50 ([24]; PC-3, 48 h, read-out: LC50): 12.5 µM

CNC(=O)NC[C@H]1O[C@@H](n2cnc3c(NC(=O)Nc4ccccc4)ncnc32)[C@H](O[Si](C)(C)C(C)(C)C)[C@@H]1CC(=O)N(C)OC [Compound 13, 2′-O-(tert-Butyldimethylsilyl)-3′,5′-dideoxy-3′-[(N-methoxy-N-methylcarboxamido)methyl]-5′-[(N-methylcarbamoyl)amino]-N^6-(N-phenylcarbamoyl)adenosine]
GI50 values (potent anticancer activities) ([1]; HOP-92): low micromolar | CC50 ([3]; 786-0, read-out: LC50): > 100 µM | TGI [5]: >1.00E−4 Molar | Percent Growth ([5]; Log10 Concentration −4.0): 12% | Percent Growth ([5]; Log10 Concentration −5.0): 40% | Percent Growth ([5]; Log10 Concentration −6.0): 82% | Percent Growth ([5]; Log10 Concentration −7.0): 98% | Percent Growth ([5]; Log10 Concentration −8.0): 98% | GI50 [8]: 1.27 µM | CC50 [8]: 9.43 µM | TGI [10]: >1.00E−4 Molar | Percent Growth ([10]; Log10 Concentration −4.0): 24% | Percent Growth ([10]; Log10 Concentration −5.0): 17% | Percent Growth ([10]; Log10 Concentration −6.0): 82% | Percent Growth ([10]; Log10 Concentration −7.0): 95% | Percent Growth ([10]; Log10 Concentration −8.0): 95% | TGI [12]: >1.00E−4 Molar | Percent Growth ([12]; Log10 Concentration −4.0): 50% | Percent Growth ([12]; Log10 Concentration −5.0): 65% | Percent Growth ([12]; Log10 Concentration −6.0): 93% | Percent Growth ([12]; Log10 Concentration −7.0): 102% | Percent Growth ([12]; Log10 Concentration −8.0): 99% | GI50 ([13]; MOLT-4): 2.23 µM | CC50 ([13]; MOLT-4, read-out: LC50): > 100 µM | TGI [14]: 4.34E−6 Molar | Percent Growth ([14]; Log10 Concentration −4.0): −58% | Percent Growth ([14]; Log10 Concentration −5.0): −48% | Percent Growth ([14]; Log10 Concentration −6.0): 84% | Percent Growth ([14]; Log10 Concentration −7.0): 86% | Percent Growth ([14]; Log10 Concentration −8.0): 95% | TGI [16]: 9.36E−6 Molar | Percent Growth ([16]; Log10 Concentration −4.0): −5% | Percent Growth ([16]; Log10 Concentration −5.0): −2% | Percent Growth ([16]; Log10 Concentration −6.0): 78% | Percent Growth ([16]; Log10 Concentration −7.0): 90% | Percent Growth ([16]; Log10 Concentration −8.0): 96% | TGI [17]: >1.00E−4 Molar | Percent Growth ([17]; Log10 Concentration −4.0): 27% | Percent Growth ([17]; Log10 Concentration −5.0): 44% | Percent Growth ([17]; Log10 Concentration −6.0): 101% | Percent Growth ([17]; Log10 Concentration −7.0): 106% | Percent Growth ([17]; Log10 Concentration −8.0): 97% | CC50 [19]: > 100 µM | GI50 ([21]; SW-620): > 100 µM | CC50 ([21]; SW-620, read-out: LC50): > 100 µM | GI50 ([22]; K562): 3.12 µM | CC50 ([22]; K562, read-out: LC50): > 100 µM

CNC(=O)NC[C@H]1O[C@@H](n2cnc3c(NC(=O)Nc4ccccc4)ncnc32)C(O[Si](C)(C)C(C)(C)C)[C@H]1O[Si](C)(C)C(C)(C)C (some centres unmarked) [Compound 25, 2′,3′-Bis-O-(tert-butyldimethylsilyl)-5-deoxy-5′-[(N-methylcarbamoyl)amino]-N^6-(N-phenylcarbamoyl)adenosine]
GI50 ([24]; PC-3): 2.69 µM | IC50 ([24]; PC-3): > 100 µM
